Test results published in patent US20240316141A1, “The Use of Thiourea and Thiourea Derivatives As Potentiators of Antibacterial Activity of Peptoids” (The Board of Trustees of the Leland Stanford Junior …, priority 2021, published 2024).

Columns and labels:
bacterial growth [1] = assay: MIC of antimicrobial peptide in the presence and absence of thiourea, 24 hour incubation; type: cell-based; settings: presence vs absence of thiourea
Method: FIG. 7. The minimum inhibitory concentration (MIC) of an antimicrobial peptide (LL-37) in the presence and absence of thiourea was examined. MIC was defined as the lowest concentration of an antimicrobial peptide that will inhibit the bacterial growth (i.e., increasing absorbance at 600 nm) after a 24 hour incubation.

bacterial growth [2] = assay: MIC of peptoid in the presence and absence of urea, 24 hour incubation; type: cell-based; settings: MIC of TM5 in presence vs absence of urea
Method: FIG. 8. The minimum inhibitory concentration (MIC) of peptoid (TM5) in the presence and absence of urea was examined. MIC was defined as the lowest concentration of peptoid that will inhibit the bacterial growth (i.e., increasing absorbance at 600 nm) after a 24 hour incubation.

bacterial growth [3] = assay: MIC of different peptoids in the presence and absence of thiourea; type: cell-based; settings: presence vs absence of thiourea; FIGS. 6A-6E
Pseudomonas aeruginosa = assay: MIC of peptoid in the presence and absence of thiourea, 24 h incubation, absorbance at 600 nm; type: cell-based; settings: presence vs absence of thiourea
Method: FIG. 1. The minimum inhibitory concentration (MIC) of peptoid (TM5) in the presence and absence of thiourea was examined. MIC was defined as the lowest concentration of peptoid that will inhibit the bacterial growth (i.e., increasing absorbance at 600 nm) after 24 h incubation.

Klebsiella pneumoniae = assay: as above; type: cell-based; settings: Klebsiella pneumoniae (ciprofloxacin-resistant), presence vs absence of thiourea
Method: FIG. 2. The minimum inhibitory concentration (MIC) of peptoid (TM5) in the presence and absence of thiourea was examined. MIC was defined as the lowest concentration of peptoid that will inhibit the bacterial growth (i.e., increasing absorbance at 600 nm) after 24 h incubation.

[4] = system: PA01 ofloxacin induced persister cells; assay: Eradication of ofloxacin induced persister cells; type: cell-based, Pseudomonas aeruginosa; settings: PA01 persister cells from stationary phase culture treated with ofloxacin 5 μg/ml for 24 h
Staphylococcus aureus = assay: MIC of peptoid in the presence and absence of thiourea, 24 h incubation, absorbance at 600 nm; type: cell-based; settings: presence vs absence of thiourea
Method: FIG. 3. The minimum inhibitory concentration (MIC) of peptoid (TM5) in the presence and absence of thiourea was examined. MIC was defined as the lowest concentration of peptoid that will inhibit the bacterial growth (i.e., increasing absorbance at 600 nm) after 24 h incubation.

LL-37: antimicrobial peptide (LL-37)
synergy of thiourea with antimicrobial peptide (MIC) (bacterial growth [1]): did not synergize

NC(N)=O [urea]
synergy of urea with peptoid TM5 (MIC) (bacterial growth [2]): did not synergize

H-Ntridec-(NLys-Nspe-Nspe(p-Br))2-NLys-NH2 [TM20]
effect of thiourea on antimicrobial activity (MIC) of different peptoids (bacterial growth [3]): increases antimicrobial activity

H—(NLys-Nspe(p-Br)-Nspe(p-Br))2—NH2 [TM4]
effect of thiourea on antimicrobial activity (MIC) of different peptoids (bacterial growth [3]): increases antimicrobial activity

H—(NLys-Nspe-Nspe)3-NLys-Nspe-NLys-NH2 [TM16]
effect of thiourea on antimicrobial activity (MIC) of different peptoids (bacterial growth [3]): increases antimicrobial activity

H-Ntridec-NLys-Nspe-Nspe-NLys-NH2 [TM5]
effect of thiourea on minimum inhibitory concentration (MIC) / antimicrobial activity of peptoid (Pseudomonas aeruginosa): increases antimicrobial activity | effect of thiourea on antimicrobial activity (MIC) of different peptoids (bacterial growth [3]): increases antimicrobial activity | effect of thiourea on minimum inhibitory concentration (MIC) / antimicrobial activity of peptoid (Klebsiella pneumoniae): increases antimicrobial activity | effect of thiourea on persister eradication capability [4]: enhance the persister eradication capability | effect of thiourea on minimum inhibitory concentration (MIC) / antimicrobial activity of peptoid (Staphylococcus aureus): increases antimicrobial activity
